Measured values: patent EP2230235A1, “Botryosphaerones, novel depsidones and their use as medicaments” (Leibniz-Institut für Naturstoff-Forschung und …, priority 2009, dated 2010)
Converted amounts (≈) assume the structure as drawn. Read-outs that look alike come from different tables or passages of the source.

Columns and labels:
Assay type in all cases: cell-based
Bacillus subtilis = test: MIC determination / antibacterial activity, agar diffusion method; details: for antimicrobial efficacy / antibacterial activity: B. subtilis, result in words
Description: (§1) Antifungal activities were studied qualitatively by agar diffusion tests according to the literature (Stuttgart, D. A. V., European Pharmacopoeia, 3rd ed.1997, 13, 118; Afonin, S.; Glaser, R. W.; Berditchevskaia, M.; Wadhwani, P.; Guhrs, K. H.; Mollmann, U.; Perner, A.; Ulrich, A. S. Chembiochem. 2003, 4, (11), 1151-1163; Standards, N. C. f. C. L., Reference Method for Broth Dilution Susceptibility Testing of Filamentous Fungi; Approved Standard. M38-A, Wayne, PA, USA, NCCls 2002, 22) and quantitatively by determination of minimal inhibitory concentration (MIC) according to the NCCLS guidelines using the broth microdilution method. Fifty microliters of the test compound solution in methanol were serially diluted by factor two with the culture medium (RPMI 1640 with L-glutamine, MOPS and without sodium bicarbonate, LONZA Verviers SPRL, Belgium). Then, the wells were inoculated with 50 µL of the test organism to give a final concentration of 6x10^3 CFU mL^-1. After incubation of the microtiter plates at 37°C (Aspergillus terreus) for 24 h, the MIC-values were read with a Nepheloscan Ascent 1.4 automatic plate reader (Lab systems, Vantaa, Finnland) as the lowest dilution of compound allowing no visible growth. The MIC for Fusarium oxysporum and Bacillus subtilis was determined by the agar diffusion method. Fifty microliters of each of the 12 serial twofold dilutions were filled in agar (malt extract agar from Roth, Karlsruhe, Germany; seeded with 0.5 mL of a pretested mycelial solution) holes of 9 mm in diameter. After incubation for 24 h the MIC was read as the lowest concentration giving an inhibition zone.

Aspergillus terreus = test: MIC determination, broth microdilution method (NCCLS guidelines); details: A. terreus; for antimicrobial efficacy: result in words; for MIC: broth microdilution, 37°C, 24 h
Description: as §1

K-562 = test: Antiproliferative assay (CellTiter-Blue); details: Homo sapiens, K562; read-out: Gl50 (K-562)
Procedure: (§2) Antiproliferative and Cytotoxic Assays: Cells and culture conditions. Cells of HUVEC (ATCC CRL-1730), K-562 (DSM ACC 10) and HeLa (DSM ACC 57) were cultured in DMEM (CAMBREX 12-[…]), RPMI 1640 (CAMBREX 12-[…]) and RPMI 1640 (CAMBREX 12-[…]) respectively. All cells were grown in the appropriate cell culture medium supplemented with 10 mL L^-1 ultraglutamine 1 (Cambrex 17-[…]/U1), 500 μ[…] gentamicin sulfate (CAMBREX 17-518Z), and 10 % heat inactivated fetal bovine serum (PAA A15-144) at 37 °C in high density polyethylene flasks (NUNC 156340). Antiproliferative assay. The test substances were dissolved in DMSO before being diluted in DMEM. The adherent cells were harvested at the logarithmic growth phase after soft trypsinization, using 0.25 % trypsin in PBS containing 0.02 % EDTA (Biochrom KG L 2163). For each experiment, approximately 10.000 cells were seeded with 0.1 mL culture medium per well of the 96-well microplates (NUNC 167008). Method of evaluation. For estimating the influence of chemical compounds on cell proliferation of K-562, the numbers of viable cells present in multiwell plates were determined via CellTiter-Blue® assay. The indicator dye resazurin was used to measure the metabolic capacity of cells as an indicator of cell viability. […] The optical densities were measured at 660 nm in SUNRISE microplate reader (TECAN). […]

Fusarium oxysporum = test: MIC determination, agar diffusion method; details: 24 h
Description: as §1, with “Fifty microliters of each of the 12 serial twofold dilutions were filled in agar (malt extract agar from Roth, Karlsruhe, Germany; seeded with 0.5 mL of a pretested mycelial solution) holes of 9 mm in diameter. After incubation for 24 h the MIC was read as the lowest concentration giving an inhibition zone.” left out

HeLa = test: Cytotoxic assay (methylene blue staining); details: Homo sapiens, 72 hours incubation, read-out: Cytotoxicity CC50 (HeLa)
Procedure: Antiproliferative and Cytotoxic Assays: Cells and culture conditions. Cells of HUVEC (ATCC CRL-1730), K-562 (DSM ACC 10) and HeLa (DSM ACC 57) were cultured in DMEM (CAMBREX 12-614F), RPMI 1640 (CAMBREX 12-167F) and RPMI 1640 (CAMBREX 12-167F) respectively. All cells were grown in the appropriate cell culture medium supplemented with 10 mL L^-1 ultraglutamine 1 (Cambrex 17-605E/U1), 500 µL L^-1 gentamicin sulfate (CAMBREX 17-518Z), and 10 % heat inactivated fetal bovine serum (PAA A15-144) at 37 °C in high density polyethylene flasks (NUNC 156340).
Cytotoxic assay. For the cytotoxic assay, HeLa cells were pre-incubated for 48 hours without the test substances. The dilutions of the compounds were carried out carefully on the subconfluent monolayers of HeLa cells after the pre-incubation time. Cells were incubated with dilutions of the test substances for 72 hours at 37 °C in a humidified atmosphere and 5 % CO2.
Method of evaluation. For estimating the influence of chemical compounds on cell proliferation of K-562, the numbers of viable cells present in multiwell plates were determined via CellTiter-Blue® assay. The indicator dye resazurin was used to measure the metabolic capacity of cells as an indicator of cell viability. […] The optical densities were measured at 660 nm in SUNRISE microplate reader (TECAN). […]

HUVEC = test: Antiproliferative assay (methylene blue staining); details: Homo sapiens
Procedure: as §2

[1] = Aspergillus terreus, read-out: MIC

Row | Molecule | antimicrobial efficacy / antibacterial activity (Bacillus subtilis) | antimicrobial efficacy (Aspergillus terreus) | MIC (Aspergillus terreus; [1]) [µg/mL] | GI50 (K-562) [nM] | MIC (Fusarium oxysporum) [µg/mL] | CC50 (HeLa) [nM] | GI50 (HUVEC) [nM] | MIC (Aspergillus terreus) [µg/mL] | MIC (Bacillus subtilis; Bacillus subtilis, 24 h) [µg/mL] | antibacterial activity (Bacillus subtilis; Bacillus subtilis, agar diffusion assays, 400 µg mL^-1)
1 | botryosphaerone D [Compound 4] | antibacterial activity | – | – | – | – | – | – | – | – | –
2 | Cc1cc(O)cc2c1Oc1c(C=O)c(O)cc(C)c1C(=O)O2 [Compound 1, botryosphaerone A] | active | active | 7.81 (≈ 26 µM) | 840 | 57.5 (≈ 191 µM) | 97000 | 1670 | – | – | –
3 | C[C@@H]1[C@H](O)[C@@H](C)/C=C/C=C/CC/C=C/C=C/C=C/C=C/C(O[C@H]2O[C@H](C)[C@@H](O)[C@H](N)[C@@H]2O)CC2O[C@](O)(CC(O)C(O)CCC(O)CC(O)CC(O)CC(=O)O[C@H]1C)CC(O)C2C(=O)O (stereo partly shown) [nystatin, reference compound] | – | – | – | – | – | – | – | 12.50 (≈ 13.5 µM) | – | –
4 | Cc1cc(O)c(C)c2c1Oc1c(C=O)c(O)cc(C)c1C(=O)O2 [Compound 2, Botryosphaerone B] | active | active | 15.6 (≈ 49.7 µM) | 3 | 75 (≈ 239 µM) | 36400 | 70 | – | – | –
5 | Cc1cc(O)c(C)c2c1Oc1c(CO)c(O)cc(C)c1C(=O)O2 [Compound 3, botryosphaerone C] | antibacterial activity | – | – | – | – | – | – | – | 400 (≈ 1260 µM) | antibacterial activity
